In experiment [1] the target is T1, aqMutL NTD (Aquifex aeolicus, UniProt O67518, K79A).
T1 construct: gene mutL; recombinant from E. coli
T1 sequence (O67518 1-319 K79A limits assumed): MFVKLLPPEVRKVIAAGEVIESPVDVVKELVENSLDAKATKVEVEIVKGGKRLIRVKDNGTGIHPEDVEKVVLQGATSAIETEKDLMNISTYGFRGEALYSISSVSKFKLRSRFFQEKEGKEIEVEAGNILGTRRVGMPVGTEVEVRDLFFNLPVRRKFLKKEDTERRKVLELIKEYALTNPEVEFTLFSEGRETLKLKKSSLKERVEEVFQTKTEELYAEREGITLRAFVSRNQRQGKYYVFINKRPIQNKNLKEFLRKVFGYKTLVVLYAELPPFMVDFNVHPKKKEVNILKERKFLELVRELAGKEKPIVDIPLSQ
Kind of experiment: equilibrium dialysis. It counts as binding.

In experiment [2] the target is T2, aqMutL NTD (Aquifex aeolicus, UniProt O67518).
T2 construct: gene mutL; recombinant from E. coli
T2 sequence (O67518 1-319 limits assumed): T1 sequence (O67518 1-319 K79A limits assumed) with A79K
Description: equilibrium dialysis. The format is binding. Background: In equilibrium dialysis only unbound substance equilibrates across the membrane.

Data on one molecule can be found in paper doi:10.1101/2021.07.09.451751v1, “Identification of general acid catalyst for the ATPase activity of Lynch syndrome-related MutL homologs” (biorxiv, 2021).

Numbering of substitutions follows the chain as printed.

Usually Kd stands for the concentration at which binding is half-saturated. A high value points to a looser complex. `Nc1ncnc2c1ncn2[C@@H]1O[C@H](COP(=O)(O)OP(=O)(O)NP(=O)(O)O)[C@@H](O)[C@H]1O` [AMPPNP]: the Kd turned out to be 340 µM on aqMutL NTD [1] and 300 µM at aqMutL NTD [2].
